Biological target: T1, c-kit kinase (Homo sapiens, UniProt P10721)
T1 construct: The c-kit (or kinase domain thereof) is an active kinase in AlphaScreen; poly-Histidine tag (in-house protein only) (cleaved yes); host or cells: E. coli BL21(DE3)RIL, co-expressed with PTP1B
Assay: c-Kit biochemical assay, AlphaScreen, 10 μM ATP
Details: c-kit biochemical inhibitory activity; read-out: Biochemical activity (IC50 μM) Kit
Procedure: IC50 values are determined with respect to inhibition of c-Kit kinase activity, where inhibition of phosphorylation of a peptide substrate is measured as a function of compound concentration. Compounds to be tested were dissolved in DMSO to a concentration of 20 mM. These were diluted 30 μl into 120 μl of DMSO (4 mM) and 1 μl was added to an assay plate. These were then serially diluted 1:3 (50 μl to 100 μl DMSO) for a total of 8 points. Plates were prepared such that each kinase reaction is 20 μl in 1× kinase buffer (50 mM HEPES, pH 7.2, 5 mM MgCl2, 5 mM MnCl2, 0.01% NP-40, 0.2% BSA), 5% DMSO and 10 μM ATP. […] C-kit kinase was at 0.1 ng per sample. After incubation of the kinase reaction for 1 hour at room temperature, 5 μl of donor beads (Streptavidin coated beads (Perkin Elmer Life Science) final concentration 1 μg/ml) in stop buffer (50 mM EDTA in 1× kinase buffer) was added, the sample was mixed and incubated for 20 minutes at room temperature before adding 5 μl of acceptor beads (PY20 coated beads (Perkin Elmer Life Science) final concentration 1 μg/ml) in stop buffer. The samples were incubated for 60 minutes at room temperature and the signal per well was read on AlphaQuest reader. […] The signal vs. compound concentration was used to determine the IC50.
Complementary DNA cloned from various human tissues were purchased from Invitrogen, and these were used as substrates in the PCR reactions. Specific custom synthetic oligonucleotide primers were designed to initiate the PCR product, and also to provide the appropriate restriction enzyme cleavage sites for ligation with the plasmids. The entire sequence encoding the enzyme was made through a gene synthesis procedure, using custom synthetic oligonucleotides covering the entire coding sequence (Invitrogen, see below).
The plasmid used for ligation with the kinase-encoding inserts was derivative of pET (Novagen) for expression using E. coli. The Kit kinase was engineered to include a Histidine tag for purification using metal affinity chromatography. The kinase-encoding plasmid was engineered as bicistronic mRNA to co-express a second protein that modifies the kinase protein during its expression in the host cell. Protein tyrosine phosphatase 1B (PTP), was co-expressed for dephosphorylation of the phospho-Tyrosines.
For protein expression, the plasmid containing the Kit gene was transformed into E. coli strains BL21(DE3)RIL and transformants selected for growth on LB agar plates containing appropriate antibiotics. Single colonies were grown overnight at 37° C. in 200 ml TB (Terrific broth) media. 16×1 L of fresh TB media in 2.8 L flasks were inoculated with 10 ml of overnight culture and grown with constant shaking at 37° C. Once cultures reached an absorbance of 1.0 at 600 nm, IPTG was added and cultures were allowed to grow for a further 12 to 18 hrs at temperatures ranging from 12-30° C. Cells were harvested by centrifugation and pellets frozen at […] until ready for lysis.
For protein Purification; frozen E. coli cell pellets were resuspended in lysis buffer and lysed using standard mechanical methods. Protein was purified via poly-Histidine tags using immobilized metal affinity purification IMAC. The Kit kinase was purified using a 3 step purification process utilizing; IMAC, size exclusion chromatography and ion exchange chromatography. The poly-Histidine tag was removed using Thrombin (Calbiochem).

T1 sequence (P10721 26-976): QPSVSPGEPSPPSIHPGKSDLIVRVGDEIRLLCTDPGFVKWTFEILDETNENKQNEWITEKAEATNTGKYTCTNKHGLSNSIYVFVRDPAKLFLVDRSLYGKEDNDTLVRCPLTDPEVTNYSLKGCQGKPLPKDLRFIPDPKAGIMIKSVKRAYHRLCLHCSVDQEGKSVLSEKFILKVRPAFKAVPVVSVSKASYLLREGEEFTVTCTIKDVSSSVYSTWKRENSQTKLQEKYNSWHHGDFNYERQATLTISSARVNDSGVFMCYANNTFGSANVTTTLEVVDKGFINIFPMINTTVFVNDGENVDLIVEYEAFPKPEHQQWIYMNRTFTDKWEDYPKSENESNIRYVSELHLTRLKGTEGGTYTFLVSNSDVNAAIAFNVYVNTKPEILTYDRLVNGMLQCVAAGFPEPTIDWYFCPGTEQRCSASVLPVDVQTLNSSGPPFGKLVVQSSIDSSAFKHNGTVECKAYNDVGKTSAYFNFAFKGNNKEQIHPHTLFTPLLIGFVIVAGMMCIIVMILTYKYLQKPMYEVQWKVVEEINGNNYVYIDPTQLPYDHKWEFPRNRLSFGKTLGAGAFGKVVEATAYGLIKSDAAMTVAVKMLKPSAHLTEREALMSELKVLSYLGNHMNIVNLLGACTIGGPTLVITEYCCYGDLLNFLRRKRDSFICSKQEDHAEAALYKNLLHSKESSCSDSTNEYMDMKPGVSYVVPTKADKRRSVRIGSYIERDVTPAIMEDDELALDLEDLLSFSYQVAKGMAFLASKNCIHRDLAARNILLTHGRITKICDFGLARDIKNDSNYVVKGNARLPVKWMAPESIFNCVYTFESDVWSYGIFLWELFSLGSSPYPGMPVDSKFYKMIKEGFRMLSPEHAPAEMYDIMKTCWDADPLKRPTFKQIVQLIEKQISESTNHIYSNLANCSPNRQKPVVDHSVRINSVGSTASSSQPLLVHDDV

SMILES | IC50 [µM]
N#Cc1c[nH]c2ncnc(N3CCN(C(=O)NCc4ccc(F)cc4)CC3)c12 [P-0158, 4-(5-cyano-7H-pyrrolo[2,3-d]pyrimidin-4-yl)-N-[(4-fluorophenyl)methyl]piperazine-1-carboxamide] | 10 to 200
C[C@H](NC(=O)N1CC2CCC1CN2c1ncnc2cc(-c3ccc(F)cc3)sc12)c1cccc(Cl)c1 (stereo partly drawn) [P-0565, N-[(1S)-1-(3-chlorophenyl)ethyl]-5-[6-(4-fluorophenyl)thieno[3,2-d]pyrimidin-4-yl]-2,5-diazabicyclo[2.2.2]octane-2-carboxamide] | 1 to 10
O=S(=O)(Nc1ccc(-c2ncnc3[nH]c(C(F)F)cc23)c(F)c1)c1ccc(Cl)cc1 [P-0310, 4-chloro-N-[4-[6-(difluoromethyl)-7H-pyrrolo[2,3-d]pyrimidin-4-yl]-3-fluoro-phenyl]benzenesulfonamide] | 1 to 10
CCCC(=O)NC1CCN(c2ncnc3[nH]ccc23)CC1 [P-0527, N-[1-(7H-pyrrolo[2,3-d]pyrimidin-4-yl)-4-piperidyl]butanamide] | 10 to 200
O=C(c1cc2c(N3CCN(C(=O)NCc4ccc(F)cc4)CC3)ncnc2[nH]1)C1CC1 [P-0209, 4-[6-(cyclopropanecarbonyl)-7H-pyrrolo[2,3-d]pyrimidin-4-yl]-N-[(4-fluorophenyl)methyl]piperazine-1-carboxamide] | 1 to 10
Cc1ccc(S(=O)(=O)Nc2ccc(-c3cc4ncnc(N5CCN(C(=O)Nc6ccccc6)CC5)c4s3)cc2)cc1 [P-0625, N-phenyl-4-[6-[4-(p-tolylsulfonylamino)phenyl]thieno[3,2-d]pyrimidin-4-yl]piperazine-1-carboxamide] | 10 to 200
O=C(NC1CCN(c2ncnc3[nH]ccc23)CC1)c1ccccc1 [P-0531, N-[1-(7H-pyrrolo[2,3-d]pyrimidin-4-yl)-4-piperidyl]benzamide] | 10 to 200
Cc1cc2c(-c3ccc(NS(=O)(=O)c4ccccc4F)c(F)c3)ncnc2[nH]1 [P-0348, 2-fluoro-N-[2-fluoro-4-(6-methyl-7H-pyrrolo[2,3-d]pyrimidin-4-yl)phenyl]benzenesulfonamide] | 0.0001 to 1
CC(C)(C)c1cc2ncnc(N3CCN(C(=O)NCc4ccc(F)cc4)CC3)c2s1 [P-0637, 4-(6-tert-butylthieno[3,2-d]pyrimidin-4-yl)-N-[(4-fluorophenyl)methyl]piperazine-1-carboxamide] | 10 to 200
CCc1ccc(C(=O)N2CCN(c3ncnc4[nH]ccc34)CC2)cc1 [P-0197, (4-ethylphenyl)-[4-(7H-pyrrolo[2,3-d]pyrimidin-4-yl)piperazin-1-yl]methanone] | 1 to 10
CCc1ccc(NC(=O)N2CCN(c3ncnc4[nH]ccc34)CC2)cc1 [P-0202, N-(4-ethylphenyl)-4-(7H-pyrrolo[2,3-d]pyrimidin-4-yl)piperazine-1-carboxamide] | 10 to 200
CCc1ccc(C(=O)NC2CCN(c3ncnc4[nH]ccc34)CC2)cc1 [P-0530, 4-ethyl-N-[1-(7H-pyrrolo[2,3-d]pyrimidin-4-yl)-4-piperidyl]benzamide] | 10 to 200
O=C1CCCN1c1ccc(S(=O)(=O)NC2CCN(c3ncnc4[nH]c(-c5ccc(Cl)cc5)cc34)CC2)cc1 [P-0473, N-[1-[6-(4-chlorophenyl)-7H-pyrrolo[2,3-d]pyrimidin-4-yl]-4-piperidyl]-4-(2-oxopyrrolidin-1-yl)benzenesulfonamide] | 10 to 200
COc1cc2ncnc(-c3cccc(NS(=O)(=O)C4CC4)c3)c2cc1OC [P-0279, N-[3-(6,7-dimethoxyquinazolin-4-yl)phenyl]cyclopropanesulfonamide] | 10 to 200
CS(=O)(=O)c1ccc(-c2ncnc3[nH]c(-c4ccc(F)cc4)cc23)cc1 [P-0391, 6-(4-fluorophenyl)-4-(4-methylsulfonylphenyl)-7H-pyrrolo[2,3-d]pyrimidine] | 1 to 10
CCCNC(=O)N1CCN(c2ncnc3[nH]ccc23)CC1 [P-0203, N-propyl-4-(7H-pyrrolo[2,3-d]pyrimidin-4-yl)piperazine-1-carboxamide] | 10 to 200

SMILES | IC50 [µM]
COc1cc2ncnc(-c3ccc(N)c(F)c3)c2cc1OC [P-0276, 4-(6,7-dimethoxyquinazolin-4-yl)-2-fluoro-aniline] | 1 to 10
O=C(NCc1ccc(F)cc1)N1CCN(c2ncnc3[nH]c(CC4CC4)cc23)CC1 [P-0210, 4-[6-(cyclopropylmethyl)-7H-pyrrolo[2,3-d]pyrimidin-4-yl]-N-[(4-fluorophenyl)methyl]piperazine-1-carboxamide] | 10 to 200
CCOc1ccc(NC(=O)N2CCN(c3ncnc4[nH]ccc34)CC2)cc1 [P-0201, N-(4-ethoxyphenyl)-4-(7H-pyrrolo[2,3-d]pyrimidin-4-yl)piperazine-1-carboxamide] | 1 to 10
O=C(NC1CCN(c2ncnc3[nH]ccc23)CC1)C1CCCC1 [P-0529, N-[1-(7H-pyrrolo[2,3-d]pyrimidin-4-yl)-4-piperidyl]cyclopentanecarboxamide] | 10 to 200
CN(C)c1ccc(NC(=O)NC2CCN(c3ncnc4[nH]ccc34)CC2)cc1 [P-0506, 1-(4-dimethylaminophenyl)-3-[1-(7H-pyrrolo[2,3-d]pyrimidin-4-yl)-4-piperidyl]urea] | 10 to 200
COc1cc2ncnc(-c3ccc(S(=O)(=O)NC4CC4)cc3)c2cc1OC [P-0277, N-cyclopropyl-4-(6,7-dimethoxyquinazolin-4-yl)benzenesulfonamide] | 10 to 200
CCCS(=O)(=O)NC1CCN(c2ncnc3[nH]ccc23)CC1 [P-0532, N-[1-(7H-pyrrolo[2,3-d]pyrimidin-4-yl)-4-piperidyl]propane-1-sulfonamide] | 10 to 200
C[C@H](NC(=O)N1CCN(c2ncnc3[nH]c(-c4ccc(F)cc4)cc23)CC1)c1ccc(Cl)cc1 [P-0178, N-[(1S)-1-(4-chlorophenyl)ethyl]-4-[6-(4-fluorophenyl)-7H-pyrrolo[2,3-d]pyrimidin-4-yl]piperazine-1-carboxamide] | 10 to 200
O=C(Nc1ccc(Cl)cc1)NC1CCN(c2ncnc3[nH]ccc23)CC1 [P-0519, 1-(4-chlorophenyl)-3-[1-(7H-pyrrolo[2,3-d]pyrimidin-4-yl)-4-piperidyl]urea] | 10 to 200
CCCNC(=O)NC1CCN(c2ncnc3[nH]ccc23)CC1 [P-0536, 1-propyl-3-[1-(7H-pyrrolo[2,3-d]pyrimidin-4-yl)-4-piperidyl]urea] | 10 to 200
O=C(NC(=O)c1ccccc1)NC1CCN(c2ncnc3[nH]ccc23)CC1 [P-0522, N-[[1-(7H-pyrrolo[2,3-d]pyrimidin-4-yl)-4-piperidyl]carbamoyl]benzamide] | 10 to 200
O=C(NC1CCCCC1)NC1CCN(c2ncnc3[nH]ccc23)CC1 [P-0537, 1-cyclohexyl-3-[1-(7H-pyrrolo[2,3-d]pyrimidin-4-yl)-4-piperidyl]urea] | 10 to 200
CCc1ccc(NC(=O)NC2CCN(c3ncnc4[nH]ccc34)CC2)cc1 [P-0535, 1-(4-ethylphenyl)-3-[1-(7H-pyrrolo[2,3-d]pyrimidin-4-yl)-4-piperidyl]urea] | 1 to 10
O=S(=O)(NC1CCN(c2ncnc3[nH]c(-c4cc(Cl)cs4)cc23)CC1)c1ccc(OC(F)(F)F)cc1 [P-0670, N-[1-[6-(4-chloro-2-thienyl)-7H-pyrrolo[2,3-d]pyrimidin-4-yl]-4-piperidyl]-4-(trifluoromethoxy)benzenesulfonamide] | 10 to 200
O=C(C1CCCCC1)N1CCN(c2ncnc3[nH]ccc23)CC1 [P-0195, cyclohexyl-[4-(7H-pyrrolo[2,3-d]pyrimidin-4-yl)piperazin-1-yl]methanone] | 10 to 200

From US10227357B2, “Compounds and methods for kinase modulation, and indications therefor” (Plexxikon Inc., priority 2012, dated 2019)
